# Test results reported in paper PMC12135066, “Design and Preclinical Evaluation of Novel uPAR-Targeting Radiopeptides Modified with an Albumin-Binding Entity” (Molecular Pharmaceutics, 2025).
# Tests used:
# human uPAR = target: T1, human uPAR (Homo sapiens, UniProt Q03405); experiment: uPAR-binding affinity (KD values), saturation experiments with HEK-uPAR cells; conditions: saturation binding on HEK-uPAR cells, on ice (4 °C) 1 h, 1–1600 nM radiopeptide, ± AE105 40 µM; γ-counter; nonlinear regression; average ± SD, n=3
# T1 construct: host or cells: HEK cells (HEK-uPAR)
# T1 sequence (Q03405 23-335): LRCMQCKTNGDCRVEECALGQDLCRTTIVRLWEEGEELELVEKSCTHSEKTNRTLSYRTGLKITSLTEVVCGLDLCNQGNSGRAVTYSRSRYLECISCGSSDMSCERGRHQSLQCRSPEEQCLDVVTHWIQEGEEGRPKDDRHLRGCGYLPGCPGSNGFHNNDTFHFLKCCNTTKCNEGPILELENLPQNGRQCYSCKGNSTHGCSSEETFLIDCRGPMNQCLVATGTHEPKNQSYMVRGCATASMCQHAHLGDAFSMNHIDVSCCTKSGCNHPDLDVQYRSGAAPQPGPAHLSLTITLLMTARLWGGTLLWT
# Outline: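 HEK-uPAR cells incubated 1 h at 4 °C (on ice) with radiopeptide at 1–1600 nM final, with or without 40 μM AE105 as blocker. Cell-bound activity counted in a γ-counter after NaOH lysis; KD from nonlinear regression of specific binding (total minus unspecific), mean ± SD of n = 3.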
# [1] = Stability of the radiopeptides in mouse blood plasma
# Protocol: (§1) The radiopeptides (50 MBq/nmol) stabilized with L-ascorbic acid were diluted in mouse and human blood plasma and incubated at 37 °C. Aliquots were taken after 1, 4, and 24 h and analyzed using reversed-phase thin-layer chromatography (TLC) (Supporting Information).
# (§2) aProduct peak expressed as percentage of the sum of integrated peak areas of the entire chromatogram relative to
# (§3) the value obtained immediately after labeling (set as 100%), average ± standard deviation (SD) (n=3).
# (§4) Stability of the Radiopeptides in Mouse and Human Blood Plasma
# (§5) Purpose: The stability of the radiopeptides was assessed in mouse and human blood plasma as an
# indication for their in vivo stability.
# (§6) Methods: The radiopeptides (50 MBq/nmol) stabilized with L-ascorbic acid were diluted in mouse
# (§7) blood plasma (Lot: 32321, Rockland Immunochemicals Inc., U.S.A.) or in human blood plasma
# (§8) (Stiftung Blutspende SRK Aargau -Solothurn, Switzerland) at a concentration of 10 MBq/200 µL and
# (§9) incubated at 37 °C over a 24 h time period. Control samples were prepared by diluting the radiopeptides
# (§10) in saline at the same activity concentration. Aliquots of each dilution were taken after 1 h, 4 h, and 24 h
# (§11) (2 µL, ~100 kBq) and investigated employing thin layer chromatography (TLC) methods on reversed-
# (§12) phase TLC plates (MERCK Analytical Chromatography, TLC Silica gel 60 RP -18 F254s) as stationary
# (§13) phase and a 3/7 (v/v) mixture of acetonitrile /citrate buffer (0.1 M, pH 5.5) as mobile phase. A dilution
# (§14) of [177Lu]LuCl3/HCl 0.04 M (10 MBq/200 µL) was added on each TLC plate. The developed and dried
# (§15) TLC plates were exposed to a phosphor screen (Super resolution screen PSR10450013, PerkinElmer)
# (§16) for 1 min. The screen was read with a Cyclone Plus phosphor imager (PerkinElmer) and the peak
# (§17) quantification was performed using OptiQuant Software (version 5.0).
# [2] = Stability of the radiopeptides in human blood plasma
# Protocol: as §1, §2, §3, §4, §5
# indication for their in vivo stability.
# as §6, §7, §8, §9, §10, §11, §12, §13, §14, §15, §16, §17
# [3] = n-Octanol/PBS distribution coefficients (logD values); conditions: n-octanol/PBS pH 7.4, pH 7.4
# [4] = Biodistribution studies in HEK-uPAR xenograft-bearing nude mice; conditions: female, mouse, 0.5 nmol, total radioactivity, 5 MBq, 0.5 nmol, decay-corrected, average ± SD, n=3 animals; for tissue uptake at 4 h: 4 h p.i.; for tissue uptake at 24 h: 24 h p.i.
# Protocol: (§18) All applicable international, national, and/or institutional guidelines for the care and use of laboratory animals were followed, and the herein reported experiments were carried out according to the guidelines of the Swiss Regulations for Animal Welfare. The preclinical studies were ethically approved by the Cantonal Committee of Animal Experimentation and permitted by the responsible cantonal authorities (License No. 75721). Five-week-old female CD1/nude (Crl:CD1-Foxn ^ nu ) and female immunocompetent FVB (FVB/NCrl) mice were obtained from Charles River Laboratories (Sulzfeld, Germany). All mice were acclimatized for at least 7 days, receiving standard rodent chow ad libitum before being included in the reported studies. The CD1/nude mice were subcutaneously inoculated with HEK-uPAR cells (7 × 10^6 cells in 100 μL PBS) on the right shoulder. […] Typically, it took 3–11 weeks to reach xenograft volumes of 40–600 mm^3 at the time of testing the tissue distribution of the radiopeptides. The immunocompetent FVB mice were used for testing the in vivo stability of the radiopeptides.
# (§19) The mice were injected with the radiopeptides (5 MBq, 0.5 nmol, 100 μL) in saline containing 0.05% BSA and sacrificed at 4 and 24 h after injection of the radiopeptides. Selected tissues and organs were collected, weighed, and measured with the γ-counter (1480 Wizard, PerkinElmer). […] A p-value of <0.05 was considered a statistically significant difference (GraphPad Prism software, version 8.3.1).
# (§20) Decay-corrected data is shown as average ± SD of n = 3 animals of % injected activity per gram (IA/g) tissue.
# [5] = test system: HEK-uPAR xenograft-bearing nude mice; experiment: as above; conditions: average ± SD, n=3 animals
# Protocol: as §18, §19, §20
# [6] = Radiolytic stability of the radiopeptides in saline with L-ascorbic acid; conditions: 50 MBq/nmol in saline, 150 MBq/300 µL, L-ascorbic acid (3 mg, 20 µL) and NaOAc (0.5 M, 30 µL), HPLC, product peak relative to t=0 (100%), average ± SD, n=3
# Protocol: The radiolytic stability of the radiopeptides (50 MBq/nmol) in saline (150 MBq/300 μL) was assessed in the absence and presence of L-ascorbic acid (3 mg added in a volume of 20 μL). After an incubation period of 1, 4, and 24 h, aliquots of the solutions were analyzed using HPLC. The integrated peak area representing the intact radiopeptide was expressed as the percentage of the sum of all peaks of the chromatogram. The final amount of intact radiopeptide was expressed as the percentage of the product peak obtained at t = 0, which was set as 100% (Supporting Information).
# The radiolytic stability of [177Lu]Lu-DOTA-AE105 and the new 177Lu-labeled uPAR-targeting
# radiopeptides (50 MBq/nmol) was assessed in vitro in the formulated solution . The radiopeptide s were
# diluted in saline to obtain an activity concentration of 150 MBq in 300 µL in the presence of L-ascorbic
# acid (3 mg, 20 µL) and NaOAc (0.5 M, 30 µL) to compensate for the acidic pH. Aliquots of the dilutions
# were analyzed using HPLC after incubation periods of 1 h, 4 h and 24 h . The integrated peak area
# measured for the intact radioligand peak was expressed as the percentage of the sum of the integrated
# peak areas of each peak present in the chromatogram. The final amount of intact radiopeptide at t = 1 h,
# 4 h and 24 h was expressed by correcting the obtained percentage of the product peak to this peak
# obtained at t = 0, which was set as 100%.
# [7] = test system: human serum albumin (HSA); experiment: Albumin-binding properties in human blood plasma (ultrafiltration assay); conditions: ultrafiltration (Amicon, 10 kDa), human blood plasma dilutions in PBS pH 7.4, [HSA]-to-[radiopeptide] 0.01–20000, 0.006 nmol, 37 °C 30 min, γ-counter; inverse ratio of B50, [177Lu]Lu-uPAR-01 set as 1.00; average curve of 3 experiments
# Protocol: The relative albumin-binding affinities of the radiopeptides in mouse and human blood plasma were determined using an ultrafiltration assay with Amicon centrifugal filters (cutoff of 10 kDa; Merck Millipore), as previously reported (Supporting Information). A fixed amount of the respective radiopeptide (15 μL, ∼300 kBq, 0.006 nmol) was added to a defined volume (150 μL) of mouse and human blood plasma dilutions to obtain [mouse serum albumin (MSA)]-to-[radiopeptide] and [human serum albumin (HSA)]-to-[radiopeptide] molar concentration ratios of 0.01–12,500 and 0.01–20,000, respectively. The data were analyzed using a semilogarithmic Hill plot with the maximum binding set as 100% (GraphPad Prism software, version 8.3.1).
# Determination of the Albumin-Binding Properties
# Purpose: The radiopeptides were investigated with regard to their albumin-binding capabilities in vitro
# as a measure to predict blood retention in vivo.
# Methods: The relative albumin-binding affinity of the radiopeptides in mouse blood plasma (Rockland
# Immunochemicals, Inc., U.S.A.) and human blood plasma (Stiftung Blutspende SRK Aargau-
# Solothurn, Switzerland) were determined using an ultrafiltration method. The amount of mouse serum
# albumin (MSA) and human serum albumin (HSA) in mouse and human blood plasma was defined as
# 550 μM and 800 μM, respectively, based on measurements using a dry chemistry analyzer (DRI-CHEM
# 4000i, FUJIFILM, Japan). A fixed amount of radiopeptide (50 MBq/nmol, ~300 kBq, 15 μL, 0.006
# nmol) was added to a defined volume (150 μL) of mouse and human blood plasma and various dilutions
# thereof in PBS pH 7.4, resulting in defined [MSA]-to-[radiopeptide] or [HSA]-to-[radiopeptide] molar
# concentration ratios ranging from 0.01 ‒12500 and 0.01‒20000, respectively, followed by incubation of
# the samples at 37 °C for 30 min. Ice-cold PBS (150 µL, pH 7.4) was added before loading the blood
# plasma samples on Amicon centrifugal filters (cut -off of 10 kDa; Merck Millipore) followed by
# centrifugation (14000 rcf, 30 min, 4 °C) to allow the separation of the plasma protein -bound from the
# plasma-unbound (free) fractions of each sample. The inserts of the filter devices were inverted and centrifuged at 200 rcf for 3 min to recover the protein -bound radiopeptide. The activity in the filtrate
# and filter unit was measured in a γ-counter (1480 Wizard, PerkinElmer) and the counts were combined
# assuming that the fraction retained in the filter membrane was not bound to proteins. The protein -bound
# fraction was expressed as percentage of the whole activity (i.e. plasma protein -bound activity, activity
# measured in the filtrate and activity measured in the filter (set as 100%) ). The data were analyzed using
# a semi-logarithmic plot assuming a maximum binding of 100%. The Hill equation was fitted to the data
# points and the half -maximum binding ( B50) based on the average curve obtained from three independent
# experiments (GraphPad Prism software, version 8.3 .1). The relative albumin-binding affinit ies of the
# reference compound, whose relative binding affinity was set as 1.0. The results were presented as the
# B50 value obtained from the average curve from 3 independent experiments.
# [8] = CD1/nude (Crl:CD1-Foxn nu), HEK-uPAR xenograft, HEK-uPAR xgft
# [9] = CD1/nude (Crl:CD1-Foxn nu), liver, Liver
# [10] = CD1/nude, blood, 5 MBq (0.5 nmol)
# [11] = CD1/nude, bone, 5 MBq (0.5 nmol)
# [12] = CD1/nude, brain, 5 MBq (0.5 nmol)
# [13] = CD1/nude, heart, 5 MBq (0.5 nmol)
# [14] = CD1/nude, intestines, 5 MBq (0.5 nmol)
# [15] = CD1/nude, kidneys, 5 MBq (0.5 nmol)
# [16] = CD1/nude, liver, 5 MBq (0.5 nmol)
# [17] = CD1/nude, lung, 5 MBq (0.5 nmol)
# [18] = CD1/nude, muscle, 5 MBq (0.5 nmol)
# [19] = CD1/nude, pancreas, 5 MBq (0.5 nmol)
# [20] = CD1/nude, salivary glands, 5 MBq (0.5 nmol)
# [21] = CD1/nude, spleen, 5 MBq (0.5 nmol)
# [22] = CD1/nude, stomach, 5 MBq (0.5 nmol)
smiles,measurement,setting,value
"CC(C)C[C@H](NC(=O)[C@H](Cc1ccc(O)cc1)NC(=O)[C@@H](CCCNC(=N)N)NC(=O)[C@@H](CO)NC(=O)[C@H](Cc1ccccc1)NC(=O)[C@H](CC1CCCCC1)NC(=O)[C@H](CC(=O)O)NC(=O)CN1CCN(CC(=O)O)CCN(CC(=O)O)CCN(CC(=O)O)CC1)C(=O)N[C@@H](Cc1c[nH]c2ccccc12)C(=O)N[C@@H](CO)C(N)=O [[^177Lu]Lu-DOTA-AE105, metal not drawn, reference compound]",Kd,human uPAR,20 ± 1 nM
same,Intact radiopeptide in mouse blood plasma [%],"[1]; 24 h, mouse blood plasma, 10 MBq/200 µL, 50 MBq/nmol, stabilized with L-ascorbic acid, 37 °C, reversed-phase TLC, phosphor imager, relative to t=0 (100%), average ± SD, n=3",~4.5%
same,"remaining at 1 h, 10 MBq/200 µL","[1]; mouse, blood plasma",61 ± 6%
same,"remaining at 24 h, 10 MBq/200 µL","[1]; mouse, blood plasma",4.6 ± 2.2%
same,"remaining at 4 h, 10 MBq/200 µL","[1]; mouse, mouse blood plasma",~13%
same,Intact radiopeptide in human blood plasma [%],"[2]; 24 h, human blood plasma, 10 MBq/200 µL, 50 MBq/nmol, stabilized with L-ascorbic acid, 37 °C, reversed-phase TLC, phosphor imager, relative to t=0 (100%), average ± SD, n=3",~4.5%
same,"remaining at 1 h, 10 MBq/200 µL","[2]; human, blood plasma",71 ± 3%
same,"remaining at 24 h, 10 MBq/200 µL","[2]; human, blood plasma",4.5 ± 1.2%
same,"remaining at 4 h, 10 MBq/200 µL","[2]; human, human blood plasma",~13%
same,logD,[3],-1.38 ± 0.18
same,tissue uptake at 4 h,[4]; [8],< 1 %ID/g
same,tissue uptake at 24 h,[4]; [8],0.4 ± 0.19 %ID/g
same,tissue uptake at 4 h,[4]; [9],< 0.2 %ID/g
same,tissue uptake at 24 h,[4]; [9],< 0.2 %ID/g
same,tissue uptake at 4 h,"[4]; CD1/nude (Crl:CD1-Foxn nu), whole blood, Blood",< 0.1 %ID/g
same,tissue uptake at 4 h,[4]; [10],0.08 ± 0.01 %ID/g
same,tissue uptake at 24 h,[4]; [10],< 0.05 %ID/g
same,tissue uptake at 4 h,[4]; [11],0.38 ± 0.03 %ID/g
same,tissue uptake at 24 h,[4]; [11],0.84 ± 0.1 %ID/g
same,tissue uptake at 4 h,[4]; [12],< 0.05 %ID/g
same,tissue uptake at 24 h,[4]; [12],< 0.05 %ID/g
same,tissue uptake at 4 h,[4]; [13],0.06 ± 0.01 %ID/g
same,tissue uptake at 24 h,[4]; [13],< 0.05 %ID/g
same,tissue uptake at 4 h,[4]; [14],0.31 ± 0.03 %ID/g
same,tissue uptake at 24 h,[4]; [14],0.18 ± 0.02 %ID/g
same,tissue uptake at 4 h,[4]; [15],1.5 ± 0.1 %ID/g
same,tissue uptake at 24 h,[4]; [15],1.3 ± 0.1 %ID/g
same,tissue uptake at 4 h,[4]; [16],0.1 ± 0.01 %ID/g
same,tissue uptake at 24 h,[4]; [16],0.17 ± 0.01 %ID/g
same,tissue uptake at 4 h,[4]; [17],0.3 ± 0.02 %ID/g
same,tissue uptake at 24 h,[4]; [17],0.21 ± 0.01 %ID/g
same,tissue uptake at 4 h,[4]; [18],< 0.05 %ID/g
same,tissue uptake at 24 h,[4]; [18],< 0.05 %ID/g
same,tissue uptake at 4 h,[4]; [19],0.06 ± 0.01 %ID/g
same,tissue uptake at 24 h,[4]; [19],0.06 ± 0.01 %ID/g
same,tissue uptake at 4 h,[4]; [20],0.09 ± 0.01 %ID/g
same,tissue uptake at 24 h,[4]; [20],0.09 ± 0.01 %ID/g
same,tissue uptake at 4 h,[4]; [21],0.18 ± 0.02 %ID/g
same,tissue uptake at 24 h,[4]; [21],0.23 ± 0.04 %ID/g
same,tissue uptake at 4 h,[4]; [22],0.15 ± 0.03 %ID/g
same,tissue uptake at 24 h,[4]; [22],0.17 ± 0.03 %ID/g
same,HEK-uPAR xgft,"[5]; 4 h p.i., 5 MBq, 0.5 nmol, decay-corrected",0.87 ± 0.05 % IA/g
same,Xenograft-to-blood ratio,[5]; 4 h p.i.,11 ± 1
same,Xenograft-to-kidney ratio,[5]; 4 h p.i.,0.58 ± 0.03
same,Xenograft-to-liver ratio,[5]; 4 h p.i.,8.6 ± 0.4
same,Xenograft-to-blood ratio,[5]; 24 h p.i.,32 ± 13
same,Xenograft-to-kidney ratio,[5]; 24 h p.i.,0.33 ± 0.14
same,Xenograft-to-liver ratio,[5]; 24 h p.i.,2.4 ± 0.9
same,"radiolytic stability, % intact radiopeptide",[6]; 1 h,98 ± 2%
same,"radiolytic stability, % intact radiopeptide",[6]; 4 h,98 ± 1%
same,"Relative albumin-binding affinity, human blood plasma",[7],0.01
